Test results published in US10844038B2, “1,2-dithiolane compounds useful in neuroprotection, autoimmune and cancer diseases and conditions” (SABILA BIOSCIENCES LLC, priority 2016, dated 2020).

Legend:
MEK5 = MEK5 (Homo sapiens (Human), UniProt Q13163); experiment: KINOMEscan competition binding assay (Kd); conditions: Table 9, read-out: Kd Values Against Representative MEK5 Kinase: MEK5
Protocol: (§1) KINOMEscan™ is based on a competition binding assay that quantitatively measures the ability of a test compound of the invention to compete with an immobilized, active-site directed ligand. The Kinase assay is performed by combining three components: DNA-tagged kinase; immobilized ligand; and a test compound. The ability of the test compound to compete with the immobilized ligand is measured via quantitative PCR of the DNA tag.
(§2) For most assays, kinase-tagged T7 phage strains were prepared in an E. coli host derived from the BL21 strain. E. coli were grown to log-phase and infected with T7 phage and incubated with shaking at 32° C. until lysis. The lysates were centrifuged and filtered to remove cell debris. The remaining kinases were produced in HEK-293 cells and subsequently tagged with DNA for qPCR detection. Streptavidin-coated magnetic beads were treated with biotinylated small molecule ligands for 30 minutes at room temperature to generate affinity resins for kinase assays. The liganded beads were blocked with excess biotin and washed with blocking buffer (SeaBlock (Pierce), 1% BSA, 0.05% Tween 20, 1 mM DTT) to remove unbound ligand and to reduce nonspecific binding. […] All reactions were performed in polystyrene 96-well plates in a final volume of 0.135 ml. […] The kinase concentration in the eluates was measured by qPCR.

mTor/FRAP1 = mTor/FRAP1 (Homo sapiens (Human), UniProt P42345); experiment: Radioisotope filter binding assay; type: biochemical; conditions: read-out: IC50 Activity Levels Against Various PI3K and mTor Kinases: mTor/FRAP1
Protocol: (§3) 3. Radioisotope Filter Binding Assay:
(§4) In this assay format, it directly detects the true product without the use of modified substrates or coupling enzymes (Uitdehaag, J. C., et al. Br. J. Pharmacol. 2012, 166, 858-876; Hastie, C. J., et al. Nat. Protoc. 2006, 1, 968-971) according to equation 1. Substrate+[γ−^33P]−ATP→^33P-Substrate+ADP eq 1
(§5) The protocol calls for test compound of the invention to be incubated with kinase, substrate, cofactors, and radio-isotope-labeled ATP (^33P-gamma-ATP). The reaction mixtures are then spotted onto filter papers which bind the radioisotope labeled catalytic product. Unreacted phosphate is removed via washing. The reagents used include base reaction buffer; 20 mM Hepes (pH 7.5), 10 mM MgCl2, 1 mM EGTA, 0.02% Brij35, 0.02 mg/ml BSA, 0.1 mM Na3VO4, 2 mM DTT, 1% DMSO. The reaction procedure include the following steps: (1) prepare indicated substrate in freshly prepared base reaction buffer, (2) deliver any required cofactors to the substrate solution above, (3) deliver indicated kinase into the substrate solution and gently mix, (4) deliver compounds in DMSO into the kinase reaction mixture by Acoustic technology (Echo550; nanoliter range), incubate for 20 minutes at room temperature, (5) deliver ^33P-ATP (specific activity 10 μCi/μL) into the reaction mixture to initiate the reaction, (6) incubate kinase reaction for 2 hours at room temperature, (7) reactions are spotted onto P81 ion exchange paper, (8) detect kinase activity by filter-binding method.

BTK = BTK (Homo sapiens (Human), UniProt Q06187); experiment: KINOMEscan competition binding assay (Kd); conditions: read-out: Kd Values Against Representative TEC Family Kinases: BTK
Protocol: as §1, §2

FYN [1] = target: T1, FYN (Homo sapiens (Human), UniProt P06241); experiment: Rabbit reticulocyte lysate assay (KinaseSeeker competition binding); conditions: read-out: % Inhibition Against SRC Family Kinases: FYN
Protocol: (§6) 1. Rabbit Reticulocyte Lysate Assay Design:
(§7) KinaseSeeker is a homogeneous competition binding assay where the displacement of an active site dependent probe by an inhibitor is measured by a change in luminescence signal. Luminescence readout translates into a highly sensitive and robust assay with low background and minimal interference from test compounds.
(§8) 10 mM stock solutions of test compounds were serially diluted in DMSO to make assay stocks. Prior to initiating IC50 determinations, the test compounds were evaluated for false positive against split-luciferase.
(§9) Each test compound was screened in duplicate against target kinase at 7 different concentrations. For kinase assays, Cfluc-kinase was translated along with Fos-Nfluc using a cell-free system (rabbit reticulocyte lysate) at 30° C. for 90 min. 24 uL aliquot of this lysate containing either 1 uL of DMSO (for no-inhibitor control) or compound solution in DMSO was incubated for 30 minutes at room temperature followed by 1 hour in presence of a kinase specific probe. 80 uL of luciferin assay reagent was added to each solution and luminescence was immediately measured on a luminometer.
(§10) The % Inhibition and % Activity Remaining was calculated using the following equation: % Inhibition=[(ALUControl−ALUSample)/ALUControl]×100 % Activity Remaining=100−% Inhibition
(§11) The % Activity was plotted against compound concentration and the IC50 was determined for each compound using a 7-point curve (Jester, B. W.; et. al. J. Am. Chem. Soc. 2010, 132, 11727-11735. Jester, B. W., et. al. J. Med. Chem. 2012, 55, 1526-1537). Biological activity of representative compounds of the disclosure are described in Table 5.

LYN = LYN (Homo sapiens (Human), UniProt P07948); experiment: as above; conditions: read-out: % Inhibition Against SRC Family Kinases: LYN
Protocol: as §6, §7, §8, §9, §10, §11

HCK = HCK (Homo sapiens (Human), UniProt P08631); experiment: as above; conditions: at 1 μM, read-out: % Inhibition Against SRC Family Kinases: HCK
Protocol: as §6, §7, §8, §9, §10, §11

CSK = CSK (Homo sapiens (Human), UniProt P41240); experiment: as above; conditions: read-out: % Inhibition Against SRC Family Kinases: CSK
Protocol: as §6, §7, §8, §9, §10, §11

SRC = SRC (Homo sapiens (Human), UniProt P12931); experiment: as above; conditions: at 1 μM, read-out: % Inhibition Against SRC Family Kinases: SRC
Protocol: as §6, §7, §8, §9, §10, §11

YES1 = YES1 (Homo sapiens (Human), UniProt P07947); experiment: as above; conditions: at 1 μM, read-out: % Inhibition Against SRC Family Kinases: YES1
Protocol: as §6, §7, §8, §9, §10, §11

FGR = FGR (Homo sapiens (Human), UniProt P09769); experiment: as above; conditions: at 1 μM, read-out: % Inhibition Against SRC Family Kinases: FGR
Protocol: as §6, §7, §8, §9, §10, §11

FYN [2] = target: T1, FYN; experiment: Radioisotope filter binding assay; type: biochemical; conditions: read-out: IC50 Activity Levels Against SRC Family Kinases: FYN
Protocol: as §3, §4, §5

mTOR = mTOR (Homo sapiens (Human), UniProt P42345); experiment: KINOMEscan competition binding assay (Kd); conditions: read-out: Kd Values Against mTOR Kinase: mTOR
Protocol: as §1, §2

PI3K β = PI3K β (Homo sapiens (Human), UniProt P42338); experiment: Radioisotope filter binding assay; type: biochemical; conditions: read-out: IC50 Activity Levels Against Various PI3K and mTor Kinases: PI3K β
Protocol: as §3, §4, §5

PI3K α = PI3K α (Homo sapiens (Human), UniProt P42336); experiment: Radioisotope filter binding assay; type: biochemical; conditions: read-out: IC50 Activity Levels Against Various PI3K and mTor Kinases: PI3K α
Protocol: as §3, §4, §5

PI3K γ = PI3K γ (Homo sapiens (Human), UniProt P48736); experiment: Radioisotope filter binding assay; type: biochemical; conditions: read-out: IC50 Activity Levels Against Various PI3K and mTor Kinases: PI3K γ
Protocol: as §3, §4, §5

BRAF = BRAF (Homo sapiens (Human), UniProt P15056); experiment: KINOMEscan competition binding assay (Kd); conditions: read-out: Kd Values Against MAPK Pathway Kinases: BRAF
Protocol: as §1, §2

[3] = target: Bruton Tyrosine Kinase (BTK) (Homo sapiens (Human), UniProt Q06187); experiment: Rabbit reticulocyte lysate assay (KinaseSeeker competition binding); conditions: read-out: IC50 Activity Levels Against Bruton Tyrosine Kinase: BTK
Protocol: as §6, §7, §8, §9, §10, §11

MEK5, sequence (Q13163 whole entry): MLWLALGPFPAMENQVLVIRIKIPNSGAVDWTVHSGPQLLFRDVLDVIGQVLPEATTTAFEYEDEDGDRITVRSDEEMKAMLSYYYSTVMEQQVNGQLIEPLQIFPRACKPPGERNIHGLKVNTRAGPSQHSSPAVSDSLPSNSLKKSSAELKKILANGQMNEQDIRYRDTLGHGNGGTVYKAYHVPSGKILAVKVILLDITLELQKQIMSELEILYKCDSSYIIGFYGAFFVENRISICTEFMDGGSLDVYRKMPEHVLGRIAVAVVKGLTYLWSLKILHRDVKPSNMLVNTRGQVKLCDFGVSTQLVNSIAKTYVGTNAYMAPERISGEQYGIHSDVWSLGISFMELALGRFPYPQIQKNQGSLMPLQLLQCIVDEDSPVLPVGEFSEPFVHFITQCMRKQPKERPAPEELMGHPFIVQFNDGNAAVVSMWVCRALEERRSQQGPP
BTK, sequence (Q06187 whole entry): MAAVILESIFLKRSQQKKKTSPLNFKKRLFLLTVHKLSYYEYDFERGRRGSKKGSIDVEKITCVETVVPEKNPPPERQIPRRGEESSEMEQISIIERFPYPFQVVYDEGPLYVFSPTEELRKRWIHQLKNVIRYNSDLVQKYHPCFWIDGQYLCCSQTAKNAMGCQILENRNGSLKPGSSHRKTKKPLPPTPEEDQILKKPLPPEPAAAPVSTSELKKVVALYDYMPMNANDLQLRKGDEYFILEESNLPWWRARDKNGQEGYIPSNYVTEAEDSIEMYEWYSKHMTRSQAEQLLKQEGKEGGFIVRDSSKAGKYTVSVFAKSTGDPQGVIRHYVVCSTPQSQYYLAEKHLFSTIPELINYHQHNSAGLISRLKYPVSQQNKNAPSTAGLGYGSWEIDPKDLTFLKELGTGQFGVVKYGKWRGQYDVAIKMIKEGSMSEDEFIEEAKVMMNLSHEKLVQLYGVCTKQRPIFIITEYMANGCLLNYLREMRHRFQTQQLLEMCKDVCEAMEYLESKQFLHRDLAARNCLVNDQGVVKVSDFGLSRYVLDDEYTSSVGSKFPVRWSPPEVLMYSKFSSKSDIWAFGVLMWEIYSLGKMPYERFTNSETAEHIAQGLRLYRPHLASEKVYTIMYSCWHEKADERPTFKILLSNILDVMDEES
T1 sequence (P06241 whole entry): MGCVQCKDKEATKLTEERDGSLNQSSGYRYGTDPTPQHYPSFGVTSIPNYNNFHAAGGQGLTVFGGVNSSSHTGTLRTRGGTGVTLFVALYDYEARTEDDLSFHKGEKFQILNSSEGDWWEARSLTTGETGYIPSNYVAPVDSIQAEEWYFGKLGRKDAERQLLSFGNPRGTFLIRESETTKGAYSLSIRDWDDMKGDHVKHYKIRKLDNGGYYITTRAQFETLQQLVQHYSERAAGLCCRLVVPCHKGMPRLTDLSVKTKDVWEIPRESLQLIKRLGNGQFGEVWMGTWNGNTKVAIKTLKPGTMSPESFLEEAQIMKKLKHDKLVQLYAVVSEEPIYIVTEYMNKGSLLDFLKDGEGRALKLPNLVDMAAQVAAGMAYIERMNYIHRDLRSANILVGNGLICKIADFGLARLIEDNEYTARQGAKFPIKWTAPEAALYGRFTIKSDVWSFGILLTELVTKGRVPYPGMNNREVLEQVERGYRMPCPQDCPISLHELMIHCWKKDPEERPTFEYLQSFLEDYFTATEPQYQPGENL
LYN, sequence (P07948 whole entry): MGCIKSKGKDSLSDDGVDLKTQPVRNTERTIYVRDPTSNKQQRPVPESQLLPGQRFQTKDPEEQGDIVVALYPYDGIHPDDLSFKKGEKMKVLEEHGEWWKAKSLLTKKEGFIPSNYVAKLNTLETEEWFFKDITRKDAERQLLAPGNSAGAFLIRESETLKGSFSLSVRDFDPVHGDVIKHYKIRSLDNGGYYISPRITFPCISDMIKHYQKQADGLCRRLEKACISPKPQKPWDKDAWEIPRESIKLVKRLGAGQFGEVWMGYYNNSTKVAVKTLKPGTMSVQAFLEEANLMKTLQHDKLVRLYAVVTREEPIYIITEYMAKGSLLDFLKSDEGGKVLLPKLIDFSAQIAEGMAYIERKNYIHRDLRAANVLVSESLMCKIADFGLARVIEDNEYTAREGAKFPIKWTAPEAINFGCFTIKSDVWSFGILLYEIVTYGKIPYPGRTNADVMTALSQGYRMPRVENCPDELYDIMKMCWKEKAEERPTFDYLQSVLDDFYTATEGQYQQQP
Bruton Tyrosine Kinase (BTK), sequence (Q06187 whole entry): as the sequence (Q06187 whole entry) above
PI3K β, sequence (P42338 whole entry): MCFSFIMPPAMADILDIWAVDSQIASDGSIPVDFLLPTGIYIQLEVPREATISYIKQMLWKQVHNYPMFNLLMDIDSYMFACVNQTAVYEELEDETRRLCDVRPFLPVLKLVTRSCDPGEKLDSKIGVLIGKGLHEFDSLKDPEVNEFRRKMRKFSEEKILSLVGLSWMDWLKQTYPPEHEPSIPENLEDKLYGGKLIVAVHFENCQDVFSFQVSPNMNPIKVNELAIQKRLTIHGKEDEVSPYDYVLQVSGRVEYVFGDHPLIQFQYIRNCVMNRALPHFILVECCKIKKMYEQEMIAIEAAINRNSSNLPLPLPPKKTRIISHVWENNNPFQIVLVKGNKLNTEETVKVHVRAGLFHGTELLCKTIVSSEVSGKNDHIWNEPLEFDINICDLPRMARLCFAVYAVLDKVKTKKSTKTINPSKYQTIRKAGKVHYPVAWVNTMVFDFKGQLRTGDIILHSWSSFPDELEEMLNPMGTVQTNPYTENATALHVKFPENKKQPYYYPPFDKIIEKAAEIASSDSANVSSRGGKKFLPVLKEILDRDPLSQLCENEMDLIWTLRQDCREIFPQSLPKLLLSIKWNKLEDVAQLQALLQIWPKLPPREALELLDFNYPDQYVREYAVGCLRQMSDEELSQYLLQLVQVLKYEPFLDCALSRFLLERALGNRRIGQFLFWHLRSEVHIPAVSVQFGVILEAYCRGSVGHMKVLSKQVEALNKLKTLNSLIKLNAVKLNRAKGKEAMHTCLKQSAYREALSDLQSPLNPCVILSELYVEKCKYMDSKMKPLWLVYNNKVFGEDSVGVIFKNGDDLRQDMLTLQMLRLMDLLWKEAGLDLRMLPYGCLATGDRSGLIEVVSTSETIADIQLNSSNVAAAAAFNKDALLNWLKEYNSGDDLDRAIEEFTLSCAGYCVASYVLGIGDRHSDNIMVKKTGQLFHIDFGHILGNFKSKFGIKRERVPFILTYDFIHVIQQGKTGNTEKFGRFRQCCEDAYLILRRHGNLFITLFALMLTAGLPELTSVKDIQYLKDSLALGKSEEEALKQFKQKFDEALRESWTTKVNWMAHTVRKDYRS
PI3K β, sequence (P27986 whole entry partner): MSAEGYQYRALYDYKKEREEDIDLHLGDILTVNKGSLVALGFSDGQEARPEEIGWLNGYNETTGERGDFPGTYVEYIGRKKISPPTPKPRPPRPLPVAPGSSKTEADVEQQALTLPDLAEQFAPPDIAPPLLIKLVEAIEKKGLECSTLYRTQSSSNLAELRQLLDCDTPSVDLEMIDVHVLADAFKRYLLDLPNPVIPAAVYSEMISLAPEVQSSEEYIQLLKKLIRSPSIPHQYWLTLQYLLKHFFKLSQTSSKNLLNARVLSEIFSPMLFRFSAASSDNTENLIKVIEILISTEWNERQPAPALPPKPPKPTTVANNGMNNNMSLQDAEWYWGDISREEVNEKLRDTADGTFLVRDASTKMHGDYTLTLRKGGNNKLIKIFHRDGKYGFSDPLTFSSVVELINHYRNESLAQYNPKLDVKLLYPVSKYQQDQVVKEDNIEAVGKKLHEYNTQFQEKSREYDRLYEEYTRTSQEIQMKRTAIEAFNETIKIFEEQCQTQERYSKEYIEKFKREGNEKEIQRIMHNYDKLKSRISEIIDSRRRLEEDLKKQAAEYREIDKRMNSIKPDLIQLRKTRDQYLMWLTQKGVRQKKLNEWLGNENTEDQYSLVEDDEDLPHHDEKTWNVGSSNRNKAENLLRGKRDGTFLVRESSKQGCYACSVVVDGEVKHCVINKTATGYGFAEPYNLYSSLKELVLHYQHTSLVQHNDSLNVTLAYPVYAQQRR
YES1, sequence (P07947 whole entry): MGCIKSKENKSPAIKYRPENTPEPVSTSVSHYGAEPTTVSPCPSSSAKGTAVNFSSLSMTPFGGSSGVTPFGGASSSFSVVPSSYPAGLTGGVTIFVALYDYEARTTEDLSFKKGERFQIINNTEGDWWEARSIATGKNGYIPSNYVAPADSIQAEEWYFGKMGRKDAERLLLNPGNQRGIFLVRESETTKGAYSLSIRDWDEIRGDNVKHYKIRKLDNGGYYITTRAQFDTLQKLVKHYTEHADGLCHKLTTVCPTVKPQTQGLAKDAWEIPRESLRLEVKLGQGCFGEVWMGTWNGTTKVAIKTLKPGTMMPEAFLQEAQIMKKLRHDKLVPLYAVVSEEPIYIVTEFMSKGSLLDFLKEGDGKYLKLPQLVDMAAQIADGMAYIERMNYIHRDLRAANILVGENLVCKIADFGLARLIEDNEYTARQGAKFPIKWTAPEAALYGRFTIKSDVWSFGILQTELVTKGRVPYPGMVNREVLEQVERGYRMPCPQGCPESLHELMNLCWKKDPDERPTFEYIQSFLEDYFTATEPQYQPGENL
CSK, sequence (P41240 whole entry): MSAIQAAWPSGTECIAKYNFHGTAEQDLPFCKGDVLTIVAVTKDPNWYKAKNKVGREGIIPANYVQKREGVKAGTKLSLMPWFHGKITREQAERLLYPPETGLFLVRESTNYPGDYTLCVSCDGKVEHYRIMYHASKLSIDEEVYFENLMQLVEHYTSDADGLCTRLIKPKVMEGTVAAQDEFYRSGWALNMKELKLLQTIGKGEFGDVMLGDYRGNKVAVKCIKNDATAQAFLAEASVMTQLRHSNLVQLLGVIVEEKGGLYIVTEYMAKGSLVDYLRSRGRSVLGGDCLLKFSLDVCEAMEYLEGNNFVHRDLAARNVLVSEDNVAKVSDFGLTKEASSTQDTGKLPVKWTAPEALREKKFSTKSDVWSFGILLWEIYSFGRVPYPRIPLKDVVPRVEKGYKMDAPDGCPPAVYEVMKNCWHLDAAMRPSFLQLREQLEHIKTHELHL

Question: Which Kd (MEK5) does the source give for `Nc1ncnc2c1c(-c1ccccc1)nn2C[C@@H]1SSC[C@H]1O` (relative stereo) [Example 28, trans 3-((4-Amino-3-phenyl-1H-pyrazolo[3,4-d]pyrimidin-1-yl)methyl)-1,2-dithiolan-4-ol] here?
Answer: 5 to 99 nM

Question: `Nc1ncnc2c1c(C#Cc1ccccc1)nn2CC1SSCC1OC(=O)c1ccccc1` (stereo not drawn) [Example 51, trans 3-((4-Amino-3-(phenylethynyl)-1H-pyrazolo[3,4-d]pyrimidin-1-yl)methyl-1,2-dithiolan-4-yl benzoate] was tested. Which IC50 (mTor/FRAP1) did it give?
Answer: 1000 to 10000 nM

Question: With `Nc1ncnc2c1c(-c1ccc(Oc3ccccc3)cc1)nn2C[C@@H]1SSC[C@@H]1O` (relative stereo) [Example 45, cis 3-((4-Amino-3-(4-phenoxyphenyl)-1H-pyrazolo[3,4-d]pyrimidin-1-yl)methyl)-1,2-dithiolan-4-ol] as the molecule, how does the Kd (BTK) read?
Answer: 5 to 99 nM

Question: What does the source list for `Nc1ncnc2c1c(-c1ccc(Oc3ccccc3)cc1)nn2C[C@@H]1SSC[C@H]1O` [Example 43 A., (3S,4R)-3-((4-Amino-3-(4-phenoxyphenyl)-1H-pyrazolo[3,4-d]pyrimidin-1-yl)methyl)-1,2-dithiolan-4-ol]?
Answer: inhibition at 1 µM (FYN [1]): 33%; inhibition at 1 µM (LYN): 33%; inhibition at 1 µM (HCK): 73%; inhibition at 1 µM (CSK): 50%; inhibition at 1 µM (SRC): 49%; inhibition at 1 µM (YES1): 90%; inhibition at 1 µM (FGR): 84%

Question: Which results are given for `CO[C@@H]1CSS[C@H]1Cn1nc(-c2ccc(Oc3ccccc3)cc2)c2c(N)ncnc21` (relative stereo) [Example 37, trans 1-((4-Methoxy-1,2-dithiolan-3-yl)methyl)-3-(4-phenoxyphenyl)-1H-pyrazolo[3,4-d]pyrimidin-4-amine]?
Answer: IC50 (FYN [2]): 5 to 99 nM; Kd (MEK5): < 5 nM; Kd (mTOR): 1000 to 10000 nM; Kd (BTK): 5 to 99 nM

Question: `Nc1ncnc2c1c(-c1ccc(Cl)cc1)nn2C[C@@H]1SSC[C@H]1O` (relative stereo) [Example 30, trans 3-((4-Amino-3-(4-chlorophenyl)-1H-pyrazolo[3,4-d]pyrimidin-1-yl)methyl)-1,2-dithiolan-4-ol] was tested. Which Kd (MEK5) did it give?
Answer: < 5 nM

Question: `Nc1ncnc2c1c(-c1ccc(Oc3ccccc3F)cc1)nn2CC1SSCC1OC(=O)c1ccccc1` (stereo not drawn) [Example 62, trans 3-((4-Amino-3-(4-(2-fluorophenoxyphenyl)-1H-pyrazolo[3,4-d]pyrimidin-1-yl)methyl)-1,2-dithiolan-4-yl benzoate] was tested. Which IC50 (FYN [2]) did it give?
Answer: 5 to 99 nM

Question: `COc1ccc(-c2nn(CC3SSCC3O)c3ncnc(N)c23)cc1` (stereo not shown) [36 B.] was tested. Which Kd (MEK5) did it give?
Answer: 5 to 99 nM

Question: And the Kd (mTOR)?
Answer: 100 to 999 nM

Question: With `Nc1ncnc2c1c(-c1ccc(Oc3ccccc3)cc1)nn2C[C@@H]1SSC[C@H]1OCc1ccccc1` (relative stereo) [Example 39, trans 1-((4-(Benzyloxy)-1,2-dithiolan-3-yl)methyl)-3-(4-phenoxyphenyl)-1H-pyrazolo[3,4-d]pyrimidin-4-amine] as the molecule, how does the Kd (MEK5) read?
Answer: 5 to 99 nM

Question: And the Kd (BTK)?
Answer: 1000 to 10000 nM

Question: With `Nc1nc2cc(-c3nn(C[C@@H]4SSC[C@H]4OC(=O)c4ccccc4)c4ncnc(N)c34)ccc2o1` (relative stereo) [Example 55, trans 3-((4-Amino-3-(2-aminobenzo[d]oxazol-5-yl)-1H-pyrazolo[3,4-d]pyrimidin-1-yl)methyl)-1,2-dithiolan-4-yl benzoate] as the molecule, how does the IC50 (PI3K β) read?
Answer: 1000 to 10000 nM

Question: And the IC50 (mTor/FRAP1)?
Answer: 5 to 99 nM

Question: And the IC50 (PI3K α)?
Answer: 100 to 999 nM

Question: And the IC50 (PI3K γ)?
Answer: 1000 to 10000 nM

Question: `Nc1ncnc2c1c(C#Cc1ccccc1)nn2C[C@@H]1SSC[C@H]1O` (relative stereo) [Example 52, trans 3-(4-Amino-3-(phenylethynyl)-1H-pyrazolo[3,4-d]pyrimidin-1-yl)methyl-1,2-dithiolan-4-ol] was tested. Which IC50 (mTor/FRAP1) did it give?
Answer: 1000 to 10000 nM

Question: Which results are given for `CO[C@H]1CSS[C@H]1Cn1nc(-c2ccc(Oc3ccccc3)cc2)c2c(N)ncnc21` (relative stereo) [Example 38, cis 1-((4-Methoxy-1,2-dithiolan-3-yl)methyl)-3-(4-phenoxyphenyl)-1H-pyrazolo[3,4-d]pyrimidin-4-amine]?
Answer: Kd (MEK5): < 5 nM; Kd (BTK): 5 to 99 nM

Question: With `Nc1ncnc2c1c(-c1ccc(Oc3ccccc3F)cc1)nn2CC1SSCC1O` (stereo not drawn) [Example 63, trans 3-((4-Amino-3-(4-(2-fluorophenoxyphenyl)-1H-pyrazolo[3,4-d]pyrimidin-1-yl)methyl)-1,2-dithiolan-4-ol] as the molecule, how does the IC50 (FYN [2]) read?
Answer: 5 to 99 nM

Question: With `Nc1ncnc2c1c(-c1ccc(Oc3ccccc3)cc1)nn2C[C@@H]1SSC[C@H]1O` (relative stereo) [Example 42, trans 3-((4-Amino-3-(4-phenoxyphenyl)-1H-pyrazolo[3,4-d]pyrimidin-1-yl)methyl)-1,2-dithiolan-4-ol] as the molecule, how does the Kd (BRAF) read?
Answer: 1000 to 10000 nM

Question: And the Kd (BTK)?
Answer: 5 to 99 nM

Question: What about the IC50 [3] of the same molecule?
Answer: 100 to 999 nM

Question: With `Nc1ncnc2c1c(-c1ccc(Oc3ccccc3)cc1)nn2C[C@@H]1SSC[C@@H]1OCc1ccccc1` (relative stereo) [Example 40, cis 1-((4-(Benzyloxy)-1,2-dithiolan-3-yl)methyl)-3-(4-phenoxyphenyl)-1H-pyrazolo[3,4-d]pyrimidin-4-amine] as the molecule, how does the IC50 (FYN [2]) read?
Answer: 1000 to 10000 nM

Question: What about the Kd (MEK5) of the same molecule?
Answer: 5 to 99 nM

Question: And the Kd (BTK)?
Answer: 100 to 999 nM
